The values that follow come from patent publication US8741339B2, “Active targeting polymer micelle encapsulating drug, and pharmaceutical composition” (Nonocarrier Co., Ltd., priority 2008, dated 2014).

≈ marks a conversion by molar mass, not a printed value.

Holding throughout (assay type): cell-based
The subject of assay [1] is human prostate cancer DU145 cell. The assay is described as follows: Cytotoxicity test 3 (WST method, 8 hours with sample liquid). Particulars: DU-145, total cultivation 72 hours, as CPT concentration.
Assay [2] concerns human liver cancer HepG2 cell. The assay is described as follows: Cytotoxicity test 4 (WST method, 8 hours with sample liquid). Particulars: total cultivation 72 hours, as CPT concentration.
Assay [3] relates to human breast cancer MDA-MB-231 cell. Description: Cytotoxicity test 5 (WST method, 8 hours with sample liquid). The note with it: MDA-MB-231, human breast cancer, total cultivation 72 hours, as CPT concentration. The method, then: The human breast cancer MDA-MB-231 cell, which had been suspended in 90 μIL of a medium, was seeded to a 96-well plate so that the cell would be contained at a concentration of about 5000 cells per well, and cultivated under an atmosphere of 37° C. and 5% CO2 overnight. The medium was formed of RPMI1640 (Gibco™, Invitrogen) and 10% Fetal Bovine Serum (FBS, biowest). Subsequently, each of sample liquids at various DTX concentrations obtained by diluting the micelle solution in Example 2 and the micelle solution in Comparative Example 1 with the medium was added to each well (10 μL per well), […] […] From each well, the absorbance (Abs450) of light at a wavelength of 450 nm was measured, and the cell growth rate (% cell growth) was calculated based on the below-indicated mathematical equation. It should be noted that “Abs450 value of control” in the mathematical equation means an absorbance obtained from a well in which the above-mentioned cultivation has been performed using a culture liquid free of DTX. % cell growth=[(Abs450 value after addition of sample liquid)−(Abs450 value of blank)]/[(Abs450 value of control)−(Abs450 value of blank)]×100 […]

One may read the GI50 as the concentration giving 50% growth inhibition. The low end stands for greater sensitivity of the cells, the high end for lower sensitivity of the cells.

On to `CC[C@@]1(O)C(=O)OCc2c1cc1n(c2=O)Cc2cc3ccccc3nc2-1` [Solution, camptothecin], for which the GI50 is 0.01 mg/L (≈ 0.0287 µM) in assay [1], 0.04 mg/L (≈ 0.115 µM) in assay [2] and 1 mg/L (≈ 2.87 µM) in assay [3].
